EC50 data for nine compounds are collected here from patent US8703934B2, “Substituted 4-amino-3,5-dicyano-2-thiopyridines and use thereof” (Bayer Intellectual Property GmbH, priority 2006, dated 2014).

pEC50: −log10 of the molar value.

Common to all, as to assay type: cell-based
One experiment addresses T1, adenosine A2b receptor (Homo sapiens, UniProt P29275).
T1 construct: expressed in transfected cells; host or cells: CHO (Chinese Hamster Ovary)
T1 sequence (P29275 1-332): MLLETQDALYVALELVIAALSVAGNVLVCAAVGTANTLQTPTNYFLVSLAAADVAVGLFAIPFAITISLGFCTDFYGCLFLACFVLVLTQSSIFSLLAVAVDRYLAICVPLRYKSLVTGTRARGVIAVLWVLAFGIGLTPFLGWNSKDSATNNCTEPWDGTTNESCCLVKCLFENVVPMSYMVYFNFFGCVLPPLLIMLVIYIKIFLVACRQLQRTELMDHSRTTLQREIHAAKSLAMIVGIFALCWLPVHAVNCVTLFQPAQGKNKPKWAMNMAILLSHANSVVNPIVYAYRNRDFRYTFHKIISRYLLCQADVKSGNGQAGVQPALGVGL
The experiment in a line: Indirect determination of adenosine agonism by way of gene expression (luciferase, CHO cells), A2b. The note with it: CHO cells stably transfected with A2b receptor cDNA; 50% of maximum luciferase stimulation. The source says: (§1) B-1. Indirect Determination of the Adenosine Agonism by Way of Gene Expression
(§2) Cells of the CHO (Chinese Hamster Ovary) permanent cell line are transfected stably with the cDNA for the adenosine receptor subtypes A1, A2a and A2b. The adenosine A1 receptors are coupled to the adenylate cyclase by way of G, proteins, while the adenosine A2a and A2b receptors are coupled by way of Gs proteins. In correspondence with this, the formation of cAMP in the cell is inhibited or stimulated, respectively. After that, expression of the luciferase is modulated by way of a cAMP-dependent promoter. The luciferase test is optimized, with the aim of high sensitivity and reproducibility, low variance and good suitability for implementation on a robot system, by varying several test parameters, such as cell density, duration of the growth phase and the test incubation, forskolin concentration and medium composition. The following test protocol is used for pharmacologically characterizing cells and for the robot-assisted substance screening:
(§3) The stock cultures are grown, at 37° C. and under 5% CO2, in DMEM/F12 medium containing 10% FCS (fetal calf serum) and in each case split 1:10 after 2-3 days. The test cultures are seeded in 384-well plates with 2000 cells per well and grown at 37° C. for approx. 48 hours. The medium is then replaced with a physiological sodium chloride solution (130 mM sodium chloride, 5 mM potassium chloride, 2 mM calcium chloride, 20 mM HEPES, 1 mM magnesium chloride hexahydrate, 5 mM sodium bicarbonate, pH 7.4). The substances to be tested, which are dissolved in DMSO, are pipetted into the test cultures (maximum final concentration of DMSO in the test mixture: 0.5%) in a dilution series of from 5×10^−11M to 3×10^−6M (final concentration). 10 minutes later, forskolin is added to the A1 cells and all the cultures are subsequently incubated at 37° C. for four hours. After that, 35 μl of a solution which is composed of 50% lysis reagent (30 mM disodium hydrogenphosphate, 10% glycerol, 3% TritonX100, 25 mM TrisHCl, 2 mM dithiotreitol (DTT), pH 7.8) and 50% luciferase substrate solution (2.5 mM ATP, 0.5 mM luciferin, 0.1 mM coenzyme A, 10 mM tricine, 1.35 mM magnesium sulfate, 15 mM DTT, pH 7.8) are added to the test cultures, which are shaken for approx 1 minute and the luciferase activity is measured using a camera system. The EC50 values are determined, i.e., the concentrations at which 50% of the luciferase answer is inhibited in the case of the A1 cell, and, respectively, 50% of the maximum stimulation with the corresponding substance is achieved in the case of the A2b and A2a cells. […] Pharmacol., 357 (1998), 1-9).

The next experiment has as its target T2, adenosine A1 receptor (Homo sapiens, UniProt P30542).
T2 construct: expressed in transfected cells; host or cells: CHO (Chinese Hamster Ovary)
T2 sequence (P30542 1-326): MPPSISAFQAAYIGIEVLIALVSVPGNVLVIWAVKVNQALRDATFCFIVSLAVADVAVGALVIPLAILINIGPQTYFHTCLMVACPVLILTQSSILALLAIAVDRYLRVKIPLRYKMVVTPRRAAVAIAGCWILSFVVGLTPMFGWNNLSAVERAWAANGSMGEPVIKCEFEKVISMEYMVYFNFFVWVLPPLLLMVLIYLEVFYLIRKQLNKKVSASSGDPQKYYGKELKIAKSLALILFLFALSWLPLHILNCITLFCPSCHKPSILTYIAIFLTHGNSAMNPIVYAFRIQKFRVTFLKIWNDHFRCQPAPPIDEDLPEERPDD
The experiment in a line: Indirect determination of adenosine agonism by way of gene expression (luciferase, CHO cells), A1. The note with it: CHO cells stably transfected with A1 receptor cDNA; 1 μM forskolin; 50% inhibition of luciferase answer.
Excerpt: as §1, §2, §3

In the next experiment the target is T3, adenosine A2a receptor (Homo sapiens, UniProt P29274).
T3 construct: expressed in transfected cells; host or cells: CHO (Chinese Hamster Ovary)
T3 sequence (P29274 whole entry): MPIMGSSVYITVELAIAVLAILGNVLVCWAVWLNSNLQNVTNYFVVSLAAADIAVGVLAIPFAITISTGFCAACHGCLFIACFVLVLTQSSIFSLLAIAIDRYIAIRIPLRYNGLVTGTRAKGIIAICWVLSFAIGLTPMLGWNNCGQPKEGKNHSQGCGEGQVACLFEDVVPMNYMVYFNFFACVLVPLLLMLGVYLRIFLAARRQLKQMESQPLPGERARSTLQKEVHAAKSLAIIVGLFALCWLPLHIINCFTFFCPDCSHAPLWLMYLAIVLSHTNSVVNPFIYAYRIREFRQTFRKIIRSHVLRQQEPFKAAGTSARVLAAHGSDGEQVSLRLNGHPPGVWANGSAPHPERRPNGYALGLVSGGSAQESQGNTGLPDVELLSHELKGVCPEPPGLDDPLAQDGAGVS
The experiment in a line: Indirect determination of adenosine agonism by way of gene expression (luciferase, CHO cells), A2a. The note with it: CHO cells stably transfected with A2a receptor cDNA; 50% of maximum luciferase stimulation.
Excerpt: as §1, §2, §3

The term pEC50 denotes −log10 of the EC50, conventionally taken in molar units. Higher therefore signals a low EC50. Broadly, the EC50 is the midpoint of the concentration-response curve. Low values mean an effect from little substance, high ones a need for much substance. For `N#Cc1c(N)nc(SCc2csc(-c3ccc(Cl)cc3)n2)c(C#N)c1N1CCC(O)CC1` [Example 1, 2-Amino-6-({[2-(4-chlorophenyl)-1,3-thiazol-4-yl]methyl}thio)-4-(4-hydroxypiperidin-1-yl)pyridine-3,5-dicarbonitrile], the figures for the negative logarithm of the EC50 (pEC50) on adenosine A2b receptor and on adenosine A2a receptor were 6.94 and 6.16, respectively. On adenosine A1 receptor, this compound returned an EC50 of 1.3 nM.

Consider `N#Cc1c(N)nc(SCc2csc(-c3ccc(Cl)cc3)n2)c(C#N)c1N1CCCCC1` [Example 2], for which the pEC50 on adenosine A2b receptor is 7.36; at adenosine A2a receptor, 6.41. On adenosine A1 receptor, the EC50 is 0.5 nM.

`CN1CCN(c2c(C#N)c(N)nc(SCc3csc(-c4ccc(Cl)cc4)n3)c2C#N)CC1` [Example 4]: the pEC50 at adenosine A2b receptor and on adenosine A2a receptor was less than 5.52 throughout. The compound also came in with an EC50 on adenosine A1 receptor of 12 nM.

Consider `N#Cc1c(N)nc(SCc2csc(Nc3ccc(F)cc3)n2)c(C#N)c1N1CCCCC1` [Example 6], for which the pEC50 at adenosine A2b receptor was less than 5.52; on adenosine A2a receptor, 5.74. The same compound yielded an EC50 at adenosine A1 receptor of 45 nM.

With `N#Cc1c(N)nc(SCc2ccc[n+]([O-])c2)c(C#N)c1N1CCCCC1` [Example 27], the values for the pEC50 at adenosine A2b receptor and at adenosine A2a receptor were 9.05 and 7.20, respectively. The same compound came in with an EC50 at adenosine A1 receptor of 0.3 nM.

With `N#Cc1c(SCc2csc(-c3ccc(Cl)cc3)n2)nc(N2CCC(O)C2)c(C#N)c1N1CCCCC1` (stereo not drawn) [Example 30], the pEC50 at adenosine A2b receptor is 7.25; at adenosine A2a receptor, 5.99. Further, the EC50 at adenosine A1 receptor was found to be 5.7 nM.

In the case of `N#Cc1cnc(SCc2csc(-c3ccc(Cl)cc3)n2)c(C#N)c1N1CCCCC1` [Example 34, 2-({[2-(4-Chlorophenyl)-1,3-thiazol-4-yl]methyl}thio)-4-(piperidin-1-yl)pyridine-3,5-dicarbonitrile], the pEC50 on adenosine A2b receptor and at adenosine A2a receptor was less than 5.52 in each case. The same compound yielded an EC50 on adenosine A1 receptor of 46 nM.

Consider `COc1nc(SCc2csc(-c3ccc(Cl)cc3)n2)c(C#N)c(N2CCCCC2)c1C#N` [Example 35, 2-({[2-(4-Chlorophenyl)-1,3-thiazol-4-yl]methyl}thio)-6-methoxy-4-(piperidin-1-yl)pyridine-3,5-dicarbonitrile], for which the pEC50 on adenosine A2b receptor and on adenosine A2a receptor was less than 5.52 throughout. Further, the EC50 on adenosine A1 receptor worked out at 8.6 nM.

As for `N#Cc1c(N)nc(SCc2coc(-c3ccc(Cl)cc3)n2)c(C#N)c1N1CCCCC1` [Example 37, 2-Amino-6-({[2-(4-chlorophenyl)-1,3-oxazol-4-yl]methyl}sulfanyl)-4-(piperidin-1-yl)pyridine-3,5-dicarbonitrile], the pEC50 on adenosine A2b receptor is 6.39; on adenosine A2a receptor, 6.45. For the same compound, on adenosine A1 receptor, the EC50 was 2.2 nM.
